Test results from ChEMBL document CHEMBL1144765, “Des-A-ring benzothiadiazines: inhibitors of HCV genotype 1 NS5B RNA-dependent RNA polymerase” (Bioorg Med Chem Lett, 2008).
pEC50: −log10 of the molar value.

Legend:
Assay in all cases: microbe, parasite or virus in culture
Hepatitis C virus [1] = conditions: subtype 1a
Description: Antiviral activity against HCV 1a by replicon based assay

Hepatitis C virus [2] = conditions: genotype 1b
Description: Antiviral activity against HCV 1b in presence of 40% human serum by replicon based assay

Hepatitis C virus [3] = conditions: genotype 1b; remark: listed apart in the source
Description: Antiviral activity against HCV 1b by replicon based assay

Hepatitis C virus [4] = conditions: genotype 1b; remark: listed apart in the source
Description: Antiviral activity against HCV 1b in presence of 5% fetal calf serum by replicon based assay

| pEC50 (Hepatitis C virus [1]) | pEC50 (Hepatitis C virus [2]) | pEC50 (Hepatitis C virus [3]) | pEC50 (Hepatitis C virus [4]) | SMILES |
| --- | --- | --- | --- | --- |
| 7.80 | 6.13 | 8.70 | 8.70 | CC(C)CCn1c(=O)c(C2=NS(=O)(=O)c3cc(NS(C)(=O)=O)ccc3N2)c(O)c2cccnc21 |
| – | 7.42 | – | 8.25 | C/C=C/c1cn(CCC(C)C)c(=O)c(C2=NS(=O)(=O)c3cc(NS(C)(=O)=O)ccc3N2)c1O |
| – | 6.04 | – | 6.79 | CC(C)CCn1ccc(O)c(C2=NS(=O)(=O)c3cc(NS(C)(=O)=O)ccc3N2)c1=O |
| – | 7.20 | – | 8.06 | C=Cc1cn(CCC(C)C)c(=O)c(C2=NS(=O)(=O)c3cc(NS(C)(=O)=O)ccc3N2)c1O |
